Experimental data from patent US6355799B1, “Substituted benzene compounds, process for their preparation, and herbicidal and defoliant compositions containing them” (ISK Americas Incorporated, priority 1997, dated 2002).

Key:
Assay type in all cases: in vivo
[1] = tested on: redroot pigweed (Amaranthus retroflexus, AMARE); assay: Pre-emerge test, greenhouse herbicide activity screening; conditions: pre-emerge, rated 14 days after application, 0 = no damage, 100 = complete death
Method in brief: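 Rating: 0–100 visual injury, 14 DAA. Application: acetone, 187 l/ha, 15–1000 g ai/ha, flat-fan track sprayer with nozzle 40–45 cm above soil or canopy. Post-emerge runs used 0.25% v/v surfactant on 2–3 leaf plants.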

[2] = tested on: barnyardgrass (Echinochloa crus-galli, ECHCG); assay: as above; conditions: pre-emerge, rated 14 days after application, 0 = no damage, 100 = complete death
Method in brief: (§1)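 Fourteen days after spraying, crop and weed injury was graded visually from 0, no effect, to 100, every plant dead. Test substances were dissolved in acetone and applied at 15–1000 g ai/ha with a flat-fan nozzle. Application was either pre-emergence, one day after sowing, or post-emergence at the 2–3 leaf stage.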

[3] = tested on: common ragweed (Ambrosia artemisizfolia L., AMBEL); assay: as above; conditions: pre-emerge, rated 14 days after application, 0 = no damage, 100 = complete death
Method in brief: as §1

[4] = tested on: green foxtail (Setaria viridis, SETVI); assay: as above; conditions: pre-emerge, rated 14 days after application, 0 = no damage, 100 = complete death
Method in brief: as §1

[5] = tested on: ivyleaf morningglory (Ipomoea hederacea, IPOHE); assay: as above; conditions: pre-emerge, rated 14 days after application, 0 = no damage, 100 = complete death
Method in brief: as §1

[6] = tested on: johnsongrass (Sorghum halepense, SORHA); assay: as above; conditions: pre-emerge, rated 14 days after application, 0 = no damage, 100 = complete death
Method in brief: as §1

[7] = tested on: lambsquarters (Chenopodium album, CHEAL); assay: as above; conditions: pre-emerge, rated 14 days after application, 0 = no damage, 100 = complete death
Method in brief: as §1

[8] = tested on: large crabgrass (Digitaria sanguinalis, DIGSA); assay: as above; conditions: pre-emerge, rated 14 days after application, 0 = no damage, 100 = complete death
Method in brief: as §1

[9] = tested on: sicklepod (Cassia obtusifolia, CASOB); assay: as above; conditions: pre-emerge, rated 14 days after application, 0 = no damage, 100 = complete death
Method in brief: as §1

[10] = tested on: velvetleaf (Abutilon theophrasti, ABUTH); assay: as above; conditions: pre-emerge, rated 14 days after application, 0 = no damage, 100 = complete death
Method in brief: as §1

[11] = tested on: field corn (Zea mays L., var. Dekalb 535, CORN); assay: Pre-emerge test, crop safety; conditions: pre-emerge, rated 14 days after application, 0 = no damage, 100 = complete death
Method in brief: (§2)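 Compounds in acetone were track-sprayed at 187 l/ha, 15–1000 g ai/ha, onto sandy loam pots. Pre-emerge seeds were sown one day before spraying, with surface watering afterwards. Post-emerge plants were at the 2–3 leaf stage and sprayed with 0.25% v/v non-ionic surfactant. Injury was rated 0–100 at 14 days.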

[12] = tested on: upland rice (Oryza sp., var. Tebonnet, RICE); assay: Pre-emerge test, crop safety; conditions: pre-emerge, rated 14 days after application, 0 = no damage, 100 = complete death
Method in brief: as §2

[13] = tested on: barnyardgrass (Echinochloa crus-galli, ECHCG); assay: Post-emerge test, greenhouse herbicide activity screening; conditions: phytotoxicity rating 0-100 (0 no damage, 100 complete death), 14 days after application
Method in brief: (§3)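 Sandy loam pots; pre-emerge: sown 1 d pre-spray, surface-watered after, then bottom-watered. Post-emerge: sown 8–21 d before, 2–3 leaf stage, + 0.25% v/v NIS, bottom-watered. Acetone, 187 l/ha track spray, 15–1000 g ai/ha. 0–100 injury score, day 14.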

[14] = tested on: common ragweed (Ambrosia artemisizfolia L., AMBEL); assay: as above; conditions: phytotoxicity rating 0-100 (0 no damage, 100 complete death), 14 days after application
Method in brief: as §3

[15] = tested on: green foxtail (Setaria viridis, SETVI); assay: as above; conditions: phytotoxicity rating 0-100 (0 no damage, 100 complete death), 14 days after application
Method in brief: as §3

[16] = tested on: ivyleaf morningglory (Ipomoea hederacea, IPOHE); assay: as above; conditions: phytotoxicity rating 0-100 (0 no damage, 100 complete death), 14 days after application
Method in brief: as §3

[17] = tested on: johnsongrass (Sorghum halepense, SORHA); assay: as above; conditions: phytotoxicity rating 0-100 (0 no damage, 100 complete death), 14 days after application
Method in brief: as §3

[18] = tested on: lambsquarters (Chenopodium album, CHEAL); assay: as above; conditions: phytotoxicity rating 0-100 (0 no damage, 100 complete death), 14 days after application
Method in brief: as §3

[19] = tested on: large crabgrass (Digitaria sanguinalis, DIGSA); assay: as above; conditions: phytotoxicity rating 0-100 (0 no damage, 100 complete death), 14 days after application
Method in brief: as §3

[20] = tested on: redroot pigweed (Amaranthus retroflexus, AMARE); assay: as above; conditions: phytotoxicity rating 0-100 (0 no damage, 100 complete death), 14 days after application
Method in brief: as §3

[21] = tested on: sicklepod (Cassia obtusifolia, CASOB); assay: as above; conditions: phytotoxicity rating 0-100 (0 no damage, 100 complete death), 14 days after application
Method in brief: as §3

[22] = tested on: velvetleaf (Abutilon theophrasti, ABUTH); assay: as above; conditions: 63 g ai/ha; phytotoxicity rating 0-100 (0 no damage, 100 complete death), 14 days after application
Method in brief: as §3

[23] = tested on: field corn (Zea mays L., var. Dekalb 535, CORN); assay: Post-emerge test, crop safety; conditions: phytotoxicity rating 0-100 (0 no damage, 100 complete death), 14 days after application
Method in brief: as §1

[24] = tested on: upland rice (Oryza sp., var. Tebonnet, RICE); assay: Post-emerge test, crop safety; conditions: phytotoxicity rating 0-100 (0 no damage, 100 complete death), 14 days after application
Method in brief: as §1

COc1c(Cl)cc(F)c(-n2c(=O)cc(C(F)(F)F)n(C)c2=O)c1N1CCCC1 [Compound 1-32]
Pre-emerge Herbicidal Activity AMARE (phytotoxicity rating, scale 0-100) ([1]; 63 g ai/ha): 0
Pre-emerge Herbicidal Activity AMARE (phytotoxicity rating, scale 0-100) ([1]; 250 g ai/ha): 100
Pre-emerge Herbicidal Activity ECHCG (phytotoxicity rating, scale 0-100) ([2]; 63 g ai/ha): 0
Pre-emerge Herbicidal Activity ECHCG (phytotoxicity rating, scale 0-100) ([2]; 250 g ai/ha): 95
Pre-emerge Herbicidal Activity AMBEL (phytotoxicity rating, scale 0-100) ([3]; 63 g ai/ha): 0
Pre-emerge Herbicidal Activity AMBEL (phytotoxicity rating, scale 0-100) ([3]; 250 g ai/ha): 50
Pre-emerge Herbicidal Activity SETVI (phytotoxicity rating, scale 0-100) ([4]; 63 g ai/ha): 0
Pre-emerge Herbicidal Activity SETVI (phytotoxicity rating, scale 0-100) ([4]; 250 g ai/ha): 100
Pre-emerge Herbicidal Activity IPOHE (phytotoxicity rating, scale 0-100) ([5]; 63 g ai/ha): 0
Pre-emerge Herbicidal Activity IPOHE (phytotoxicity rating, scale 0-100) ([5]; 250 g ai/ha): 50
Pre-emerge Herbicidal Activity SORHA (phytotoxicity rating, scale 0-100) ([6]; 63 g ai/ha): 0
Pre-emerge Herbicidal Activity SORHA (phytotoxicity rating, scale 0-100) ([6]; 250 g ai/ha): 30
Pre-emerge Herbicidal Activity CHEAL (phytotoxicity rating, scale 0-100) ([7]; 63 g ai/ha): 90
Pre-emerge Herbicidal Activity CHEAL (phytotoxicity rating, scale 0-100) ([7]; 250 g ai/ha): 100
Pre-emerge Herbicidal Activity DIGSA (phytotoxicity rating, scale 0-100) ([8]; 63 g ai/ha): 0
Pre-emerge Herbicidal Activity DIGSA (phytotoxicity rating, scale 0-100) ([8]; 250 g ai/ha): 100
Pre-emerge Herbicidal Activity CASOB (phytotoxicity rating, scale 0-100) ([9]; 63 g ai/ha): 40
Pre-emerge Herbicidal Activity CASOB (phytotoxicity rating, scale 0-100) ([9]; 250 g ai/ha): 40
Pre-emerge Herbicidal Activity ABUTH (phytotoxicity rating, scale 0-100) ([10]; 63 g ai/ha): 90
Pre-emerge Herbicidal Activity ABUTH (phytotoxicity rating, scale 0-100) ([10]; 250 g ai/ha): 100
Pre-emerge crop damage CORN (phytotoxicity rating, scale 0-100) ([11]; 63 g ai/ha): 0
Pre-emerge crop damage CORN (phytotoxicity rating, scale 0-100) ([11]; 250 g ai/ha): 0
Pre-emerge crop damage RICE (phytotoxicity rating, scale 0-100) ([12]; 63 g ai/ha): 20
Pre-emerge crop damage RICE (phytotoxicity rating, scale 0-100) ([12]; 250 g ai/ha): 40
Post-emerge Herbicidal Activity ECHCG ([13]; 63 g ai/ha): 0
Post-emerge Herbicidal Activity ECHCG ([13]; 250 g ai/ha): 0
Post-emerge Herbicidal Activity AMBEL ([14]; 63 g ai/ha): 0
Post-emerge Herbicidal Activity AMBEL ([14]; 250 g ai/ha): 30
Post-emerge Herbicidal Activity SETVI ([15]; 63 g ai/ha): 0
Post-emerge Herbicidal Activity SETVI ([15]; 250 g ai/ha): 0
Post-emerge Herbicidal Activity IPOHE ([16]; 63 g ai/ha): 0
Post-emerge Herbicidal Activity IPOHE ([16]; 250 g ai/ha): 70
Post-emerge Herbicidal Activity SORHA ([17]; 63 g ai/ha): 0
Post-emerge Herbicidal Activity SORHA ([17]; 250 g ai/ha): 0
Post-emerge Herbicidal Activity CHEAL ([18]; 63 g ai/ha): 0
Post-emerge Herbicidal Activity CHEAL ([18]; 250 g ai/ha): 60
Post-emerge Herbicidal Activity DIGSA ([19]; 63 g ai/ha): 0
Post-emerge Herbicidal Activity DIGSA ([19]; 250 g ai/ha): 0
Post-emerge Herbicidal Activity AMARE ([20]; 63 g ai/ha): 10
Post-emerge Herbicidal Activity AMARE ([20]; 250 g ai/ha): 30
Post-emerge Herbicidal Activity CASOB ([21]; 63 g ai/ha): 0
Post-emerge Herbicidal Activity CASOB ([21]; 250 g ai/ha): 0
Post-emerge Herbicidal Activity ABUTH [22]: 30
Post-emerge Herbicidal Activity CORN (crop damage) ([23]; 63 g ai/ha): 0
Post-emerge Herbicidal Activity CORN (crop damage) ([23]; 250 g ai/ha): 0
Post-emerge Herbicidal Activity RICE (crop damage) ([24]; 63 g ai/ha): 0
Post-emerge Herbicidal Activity RICE (crop damage) ([24]; 250 g ai/ha): 0
